One assay relates to NOS2. Description: NOS2 and NeuN staining in wild type mice treated with DSP4 and injected with Aβ1-42. The class given is in vivo. The settings on record: Aβ1-42 injected. As for the experimental part: Genotyping was performed to confirm identity of NOS2 null and wild type littermates (FIG. 7A), and wild type mice treated with DSP4, and wild type mice treated with DSP4 and injected with oligomeric Aβ1-42 (FIG. 7B). One day later brain sections were analyzed for NOS2 (green) and NeuN (red) staining White arrows indicate neurons labeled with both antibodies.
Wild type and NOS2 null mice were treated with two i.p. injections of DSP4 as described below, and injected with oligomeric Aβ1-42 4 weeks after the second DSP4 injection. One day later brain sections were prepared from the mice, sections from wild type (FIG. 8A) and NOS2 null mice (FIG. 8B) were stained for SMI-32.
Slides were washed for 5 min. with PBS and blocked with 5% normal donkey serum in PBS at room temperature for 30 min. Primary antibodies were diluted in 1% normal donkey serum in PBS. […] Images were obtained on a Zeiss Axioplan2 fluorescence microscope equipped with an Axiocam MRm digital camera and Axiovision 4.2 imaging software.
Quantitative analysis of NOS2 positively staining cells was performed as described above. In brief, NOS2 positive containing neurons having large cell bodies were counted in 5 sections having a defined distance (0, 200 and 400 μm rostral and caudal) relative to the level of cortical injection, in brain sections from at least 3 or 4 animals per group. […]

In another assay the test system is LC noradrenergic neurons. Briefly: Lesion of the locus coeruleus with DSP4 in H6 mice. The class given is in vivo. Conditions: DSP4 5 mg per kg i.p. every two weeks, H6 mice from age 3-4 months, sacrificed at 9 months. As for the experimental part:
Hemizygous male H6 mice (aged 3 to 4 months) were injected with vehicle or with DSP4 (5 mg per kg; i.p., every two weeks) and all mice were sacrificed at age 9 months. This protocol (a low, chronic dose) results in 70% loss of LC noradrenergic neurons. Brains were dissected, the left hemispheres were fast frozen in isopentane at −30° C. and stored at −80° C. for subsequent protein and RNA studies. The right hemispheres were processed for immunohistochemistry.
A chronic treatment paradigm was chosen using a relatively low dose (5 mg/kg) which may better reproduce the slow onset of NA dysfunction that is seen with aging in humans, and a gradual rather than abrupt loss of LC neurons.

The subject of assay [1] is insulin degrading enzyme (IDE). Description: QPCR of insulin degrading enzyme mRNA in brain samples. The assay is classed as in vivo, mice. Conditions: cortical samples, versus vehicle. As for the experimental part: (§1) Total cytoplasmic RNA from tissues was isolated using TRIZOL reagent, (Invitrogen/GIBCO); aliquots were converted to cDNA using random hexamer primers, and mRNA levels were estimated by quantitative touchdown PCR (QPCR). PCR conditions were 35 cycles of denaturation at 94° C. for 10 s; annealing at 58-64° C. for 15 s; and extension at 72° C. for 20 s on a Corbett Rotorgene Real-Time PCR unit (Corbett, Australia). PCR was done using Taq DNA Polymerase (Invitrogen), and contained SYBR Green (SybrGreen1 10,000× concentrate, diluted 1:10,000; Molecular Probes, Eugene, Oreg.). Relative mRNA concentrations were calculated from the takeoff point of reactions using manufacturer's software, and were normalized to α-tubulin, β-actin, and glyceraldehyde-3-phosphate dehydrogenase (GDH). Melting curve analysis and agarose gel electrophoresis ensured production of single and corrected size products. The primers used were: […]
Comparative real time RT-PCR (or quantitative PCR, QPCR) was used to measure mRNA levels of the Aβ degrading enzymes neprilysin (Nep) and insulin degrading enzyme (IDE) in brain samples from vehicle and DSP4 treated mice (FIG. 4A). […] To assess the effects of dose, mouse neuronal N2A cells were incubated with increasing does of NA for 24 hr after which NEP activity was measured (FIG. 4D, data is mean±sd and is from n=3 samples). […]

The next assay concerns BACE1, PSEN1, Adam10. Description: Western blot and PCR analysis of APP processing enzymes in 9 month-old mice. The assay is classed as in vivo. Conditions: data not shown. As for the experimental part:
Brain tissue was homogenized in 8M urea. Total protein concentration was determined using the Bradford assay and BSA as standard. Proteins were separated on 8 or 15% SDS page gels, transferred to PVDF membrane and incubated with antibodies: anti-APP^645-694 G369 (1:4000), anti α-tubulin (T-9026, Sigma) (1:5000). Signals were detected using the ECL Kit (Amersham), band intensities calculated using Image J software (ImageJ 1.31V), and normalized to α-tubulin values.
as §1
For orientation: In western blotting, separated proteins are transferred to a membrane and probed.

Take `CCN(CCCl)Cc1ccccc1Br` [DSP4, N-(2-chloroethyl)-N-ethyl-2-bromobenzylamine]: the “NOS2 expression in neurons” value in the assay on NOS2 was “increases NOS2 expression in neurons”. Also, in the assay on LC noradrenergic neurons, the “loss of LC noradrenergic (TH positive) neurons” value is 70%. Besides, the “levels of insulin degrading enzyme (IDE) mRNA” value in assay [1] is listed as “small, non-significant reductions”. Also, the “BACE1, PSEN1, Adam10 mRNA, BACE1 protein, human APP mRNA levels” value with BACE1, PSEN1, Adam10 is given as “did not reveal any significant changes”.

The values are drawn from patent US8580776B2, “Compositions and methods for treating neurodegenerating diseases” (The Board of Trustees of the University of Illinois, priority 2007, dated 2013).
